Values quoted from earlier work as cited in patent US12478612B2 (CinDome Pharma, Inc., priority 2017, dated 2025).
Where two headings read alike, the source gives them in different places.

How the values were obtained:
[1] = system: Human plasma protein
[2] = weak base

Compound	Human plasma protein binding ([1]; 10 ng/ml tritiated domperidone) [%]	Human plasma protein binding ([1]; 100 ng/ml tritiated domperidone) [%]	pKa [2]
5-chloro-1-(1-[3-(2-oxo-2,3-dihydro-1H-benzo[d]imidazol-1-yl)propyl]piperidin-4-yl)-1H-benzo[d]imidazol-2(3H)-one [Domperidone]	91.7	93.0	–
O=c1[nH]c2ccccc2n1CCCN1CCC(n2c(=O)[nH]c3cc(Cl)ccc32)CC1 [Domperidone, 5-chloro-1-(1-[3-(2-oxo-2,3-dihydro-1H-benzo[d]imidazol-1-yl)propyl]piperidin-4-yl)-1H-benzo[d]imidazol-2(3H)-one]	–	–	7.89
